Assays:
oval-leafed pondweed = experiment: Test Example 1: herbicidal activity, application before weed generation under submerged conditions (Table 16, symbol C); type: in vivo, oval-leafed pondweed (Monochoria vaginalis); details: 320 g/ha applied herbicide
Method in brief: (§1)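 Emulsion formulation, water-diluted to set dose, was put onto the flooded surface (4 cm depth, alluvial soil) the same day weeds were sown and 2.5-leaf rice transplanted. After 3 weeks at 25-30 °C under glass, each species was rated 0 (≤5% kill) to 5 (≥90% kill).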

blackgrass [1] = experiment: Test Example 4: herbicidal effect by soil treatment (Table 19, symbol J); type: in vivo, blackgrass (Alopecurus myosuroides); details: amount of applied herbicide 320 g/ha
Method in brief: (§2)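 Herbicidal effect was rated 3 weeks after treatment, using the scoring criteria of an earlier test. The compound, formulated as an emulsion and diluted in water to a set herbicide amount, had been sprayed uniformly on soil over freshly sown seeds. Growth took place in a greenhouse at 25° C. to 30° C.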

southern crabgrass [2] = experiment: Test Example 4: herbicidal effect by soil treatment (Table 19, symbol F); type: in vivo, southern crabgrass (Digitaria ciliaris); details: amount of applied herbicide 320 g/ha
Method in brief: as §2

lambsquarters [3] = experiment: Test Example 5: herbicidal effect by foliage application, plastic box (Table 20, symbol O); type: in vivo, lambsquarters (Chenopodium album); details: foliage application, AAH 320 g/ha, evaluated three weeks after application
Method in brief: (§3)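 Foliar spray test: emulsion formulation diluted in water to a set application rate, sprayed onto 14-day-old plants raised in diluvial soil at 25° C to 30° C under glass. Both herbicidal effect and crop effect rated visually three weeks later.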

green foxtail [4] = experiment: Test Example 4: herbicidal effect by soil treatment (Table 19, symbol G); type: in vivo, green foxtail (Setaria viridis); details: amount of applied herbicide 320 g/ha
Method in brief: as §2

windgrass [5] = experiment: Test Example 4: herbicidal effect by soil treatment (Table 19, symbol L); type: in vivo, windgrass (Apera spica-venti); details: amount of applied herbicide 320 g/ha
Method in brief: as §2

blackgrass [6] = experiment: Test Example 5: herbicidal effect by foliage application, plastic box (Table 20, symbol J); type: in vivo, blackgrass (Alopecurus myosuroides); details: foliage application, AAH 320 g/ha, evaluated three weeks after application
Method in brief: as §3

false cleavers = experiment: Test Example 4: herbicidal effect by soil treatment (Table 19, symbol Q); type: in vivo, false cleavers (Galium spurium); details: amount of applied herbicide 320 g/ha
Method in brief: as §2

Italian ryegrass [7] = experiment: Test Example 5: herbicidal effect by foliage application, plastic box (Table 20, symbol K); type: in vivo, Italian ryegrass (Lolium multiflorum); details: foliage application, AAH 320 g/ha, evaluated three weeks after application
Method in brief: as §3

chickweed [8] = experiment: Test Example 5: herbicidal effect by foliage application, plastic box (Table 20, symbol P); type: in vivo, common chickweed (Stellaria media); details: foliage application, AAH 320 g/ha, evaluated three weeks after application
Method in brief: as §3

redroot pigweed [9] = experiment: Test Example 4: herbicidal effect by soil treatment (Table 19, symbol N); type: in vivo, redroot pigweed (Amaranthus retroflexus); details: amount of applied herbicide 320 g/ha
Method in brief: as §2

Italian ryegrass [10] = experiment: Test Example 4: herbicidal effect by soil treatment (Table 19, symbol K); type: in vivo, Italian ryegrass (Lolium multiflorum); details: amount of applied herbicide 320 g/ha
Method in brief: as §2

late watergrass = experiment: Test Example 1: herbicidal activity, application before weed generation under submerged conditions (Table 16, symbol A); type: in vivo, late watergrass (Echinochloa oryzicola); details: 320 g/ha applied herbicide
Method in brief: as §1

velvetleaf [11] = experiment: Test Example 4: herbicidal effect by soil treatment (Table 19, symbol M); type: in vivo, velvetleaf (Abutilon theophrasti); details: amount of applied herbicide 320 g/ha
Method in brief: as §2

lambsquarters [12] = experiment: Test Example 4: herbicidal effect by soil treatment (Table 19, symbol O); type: in vivo, lambsquarters (Chenopodium album); details: amount of applied herbicide 320 g/ha
Method in brief: as §2

rice flat sedge = experiment: Test Example 3: herbicidal effect by foliage application, Wagner pot (Table 18, symbol E); type: in vivo, rice flat sedge (Cyperus iria); details: amount of applied herbicide 320 g/ha
Method in brief: (§4)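 Plants were sown in alluvial soil held under 0.1–0.5 cm standing water and grown 14 days in a greenhouse at 25–30 °C. An emulsifiable formulation, water-diluted to the set dose, was then sprayed onto the foliage, and effects were scored three weeks later using previously defined criteria.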

persian speedwell [13] = experiment: Test Example 5: herbicidal effect by foliage application, plastic box (Table 20, symbol R); type: in vivo, Persian speedwell (Veronica persica); details: foliage application, AAH 320 g/ha, evaluated three weeks after application
Method in brief: as §3

wild oat [14] = experiment: Test Example 5: herbicidal effect by foliage application, plastic box (Table 20, symbol I); type: in vivo, wild oat (Avena fatua); details: foliage application, AAH 320 g/ha, evaluated three weeks after application
Method in brief: as §3

chickweed [15] = experiment: Test Example 4: herbicidal effect by soil treatment (Table 19, symbol P); type: in vivo, common chickweed (Stellaria media); details: amount of applied herbicide 320 g/ha
Method in brief: as §2

wild oat [16] = experiment: Test Example 4: herbicidal effect by soil treatment (Table 19, symbol I); type: in vivo, wild oat (Avena fatua); details: amount of applied herbicide 320 g/ha
Method in brief: as §2

green foxtail [17] = experiment: Test Example 5: herbicidal effect by foliage application, plastic box (Table 20, symbol G); type: in vivo, green foxtail (Setaria viridis); details: foliage application, AAH 320 g/ha, evaluated three weeks after application
Method in brief: as §3

barnyard grass [18] = experiment: Test Example 4: herbicidal effect by soil treatment (Table 19, symbol H); type: in vivo, barnyard grass (Echinochloa crus-galli); details: amount of applied herbicide 320 g/ha
Method in brief: as §2

Japanese bulrush = experiment: Test Example 1: herbicidal activity, application before weed generation under submerged conditions (Table 16, symbol B); type: in vivo, Japanese bulrush (Schoenoplectus juncoides); details: 320 g/ha applied herbicide
Method in brief: as §1

redroot pigweed [19] = experiment: Test Example 5: herbicidal effect by foliage application, plastic box (Table 20, symbol N); type: in vivo, redroot pigweed (Amaranthus retroflexus); details: foliage application, AAH 320 g/ha, evaluated three weeks after application
Method in brief: as §3

velvetleaf [20] = experiment: Test Example 5: herbicidal effect by foliage application, plastic box (Table 20, symbol M); type: in vivo, velvetleaf (Abutilon theophrasti); details: foliage application, AAH 320 g/ha, evaluated three weeks after application
Method in brief: as §3

barnyard grass [21] = experiment: Test Example 3: herbicidal effect by foliage application, Wagner pot (Table 18, symbol H); type: in vivo, barnyard grass (Echinochloa crus-galli); details: amount of applied herbicide 320 g/ha
Method in brief: as §4

Chinese sprangletop = experiment: Test Example 3: herbicidal effect by foliage application, Wagner pot (Table 18, symbol D); type: in vivo, chinese sprangletop (Leptochloa chinensis); details: amount of applied herbicide 320 g/ha
Method in brief: as §4

windgrass [22] = experiment: Test Example 5: herbicidal effect by foliage application, plastic box (Table 20, symbol L); type: in vivo, windgrass (Apera spica-venti); details: foliage application, AAH 320 g/ha, evaluated three weeks after application
Method in brief: as §3

barnyard grass [23] = experiment: Test Example 5: herbicidal effect by foliage application, plastic box (Table 20, symbol H); type: in vivo, barnyard grass (Echinochloa crus-galli); details: foliage application, AAH 320 g/ha, evaluated three weeks after application
Method in brief: as §3

persian speedwell [24] = experiment: Test Example 4: herbicidal effect by soil treatment (Table 19, symbol R); type: in vivo, Persian speedwell (Veronica persica); details: amount of applied herbicide 320 g/ha
Method in brief: as §2

southern crabgrass [25] = experiment: Test Example 5: herbicidal effect by foliage application, plastic box (Table 20, symbol F); type: in vivo, southern crabgrass (Digitaria ciliaris); details: foliage application, AAH 320 g/ha, evaluated three weeks after application
Method in brief: as §3

Cc1nn(C)c(=O)c(-c2c(-c3cccc(O)c3)sc3ccc(F)cc23)c1O [2-336]
Herbicidal effect on C: oval-leafed pondweed (grade 0-5) (oval-leafed pondweed): 0 (Herbicidal rate of 5% or less (almost no effect))
herbicidal effect on J: blackgrass (blackgrass [1]): 0 (Herbicidal rate of 5% or less (almost no effect))
herbicidal effect on F: southern crabgrass (southern crabgrass [2]): 3 (Herbicidal rate of 40% or more and less than 70%)
O: lambsquarters, herbicidal effect (criteria 0-5) (lambsquarters [3]): 4 (Herbicidal rate of 70% or more and less than 90%)
herbicidal effect on G: green foxtail (green foxtail [4]): 5 (Herbicidal rate of 90% or more (almost completely withered))
herbicidal effect on L: windgrass (windgrass [5]): 0 (Herbicidal rate of 5% or less (almost no effect))
J: blackgrass, herbicidal effect (criteria 0-5) (blackgrass [6]): 3 (Herbicidal rate of 40% or more and less than 70%)
herbicidal effect on Q: false cleavers (false cleavers): 0 (Herbicidal rate of 5% or less (almost no effect))
K: Italian ryegrass, herbicidal effect (criteria 0-5) (Italian ryegrass [7]): 4 (Herbicidal rate of 70% or more and less than 90%)
P: chickweed, herbicidal effect (criteria 0-5) (chickweed [8]): 5 (Herbicidal rate of 90% or more (almost completely withered))
herbicidal effect on N: redroot pigweed (redroot pigweed [9]): 5 (Herbicidal rate of 90% or more (almost completely withered))
herbicidal effect on K: Italian ryegrass (Italian ryegrass [10]): 3 (Herbicidal rate of 40% or more and less than 70%)
Herbicidal effect on A: late watergrass (grade 0-5) (late watergrass): 0 (Herbicidal rate of 5% or less (almost no effect))
herbicidal effect on M: velvetleaf (velvetleaf [11]): 3 (Herbicidal rate of 40% or more and less than 70%)
herbicidal effect on O: lambsquarters (lambsquarters [12]): 3 (Herbicidal rate of 40% or more and less than 70%)
herbicidal effect on E: rice flat sedge (rice flat sedge): 3 (Herbicidal rate of 40% or more and less than 70%)
R: persian speedwell, herbicidal effect (criteria 0-5) (persian speedwell [13]): 5 (Herbicidal rate of 90% or more (almost completely withered))
I: wild oat, herbicidal effect (criteria 0-5) (wild oat [14]): 0 (Herbicidal rate of 5% or less (almost no effect))
herbicidal effect on P: chickweed (chickweed [15]): 3 (Herbicidal rate of 40% or more and less than 70%)
herbicidal effect on I: wild oat (wild oat [16]): 0 (Herbicidal rate of 5% or less (almost no effect))
G: green foxtail, herbicidal effect (criteria 0-5) (green foxtail [17]): 5 (Herbicidal rate of 90% or more (almost completely withered))
herbicidal effect on H: barnyard grass (barnyard grass [18]): 4 (Herbicidal rate of 70% or more and less than 90%)
Herbicidal effect on B: Japanese bulrush (grade 0-5) (Japanese bulrush): 3 (Herbicidal rate of 40% or more and less than 70%)
N: redroot pigweed, herbicidal effect (criteria 0-5) (redroot pigweed [19]): 5 (Herbicidal rate of 90% or more (almost completely withered))
M: velvetleaf, herbicidal effect (criteria 0-5) (velvetleaf [20]): 1 (Herbicidal rate of 5% or more and less than 20%)
herbicidal effect on H: barnyard grass (barnyard grass [21]): 5 (Herbicidal rate of 90% or more (almost completely withered))
herbicidal effect on D: Chinese sprangletop (Chinese sprangletop): 0 (Herbicidal rate of 5% or less (almost no effect))
L: windgrass, herbicidal effect (criteria 0-5) (windgrass [22]): 4 (Herbicidal rate of 70% or more and less than 90%)
H: barnyard grass, herbicidal effect (criteria 0-5) (barnyard grass [23]): 1 (Herbicidal rate of 5% or more and less than 20%)
herbicidal effect on R: persian speedwell (persian speedwell [24]): 5 (Herbicidal rate of 90% or more (almost completely withered))
F: southern crabgrass, herbicidal effect (criteria 0-5) (southern crabgrass [25]): 5 (Herbicidal rate of 90% or more (almost completely withered))

From US20230085307A1, “PYRIDAZINONE COMPOUND AND HERBICIDE” (NISSAN CHEMICAL CORPORATION, priority 2019, published 2023)
